In patent publication US9783536B2, “Nitrogen-containing heterocyclic compound or salt thereof” (FUJIFILM Corporation, priority 2013, dated 2017):
Counter-ions that a name gives are not always drawn. Like-named read-outs stand apart in the source and are kept apart here.

How the values were obtained:
[1] = molecular target: T1, human PI3Kα protein (Homo sapiens, UniProt P42336); assay: PI3Kα enzyme assay (ADP-Glo); type: biochemical; details: read-out: PI3Kα enzyme inhibitory activity
T1 construct: purchased Carna Biosciences, Inc; host or cells: baculovirus expression system
T1 sequence (P42336 whole entry): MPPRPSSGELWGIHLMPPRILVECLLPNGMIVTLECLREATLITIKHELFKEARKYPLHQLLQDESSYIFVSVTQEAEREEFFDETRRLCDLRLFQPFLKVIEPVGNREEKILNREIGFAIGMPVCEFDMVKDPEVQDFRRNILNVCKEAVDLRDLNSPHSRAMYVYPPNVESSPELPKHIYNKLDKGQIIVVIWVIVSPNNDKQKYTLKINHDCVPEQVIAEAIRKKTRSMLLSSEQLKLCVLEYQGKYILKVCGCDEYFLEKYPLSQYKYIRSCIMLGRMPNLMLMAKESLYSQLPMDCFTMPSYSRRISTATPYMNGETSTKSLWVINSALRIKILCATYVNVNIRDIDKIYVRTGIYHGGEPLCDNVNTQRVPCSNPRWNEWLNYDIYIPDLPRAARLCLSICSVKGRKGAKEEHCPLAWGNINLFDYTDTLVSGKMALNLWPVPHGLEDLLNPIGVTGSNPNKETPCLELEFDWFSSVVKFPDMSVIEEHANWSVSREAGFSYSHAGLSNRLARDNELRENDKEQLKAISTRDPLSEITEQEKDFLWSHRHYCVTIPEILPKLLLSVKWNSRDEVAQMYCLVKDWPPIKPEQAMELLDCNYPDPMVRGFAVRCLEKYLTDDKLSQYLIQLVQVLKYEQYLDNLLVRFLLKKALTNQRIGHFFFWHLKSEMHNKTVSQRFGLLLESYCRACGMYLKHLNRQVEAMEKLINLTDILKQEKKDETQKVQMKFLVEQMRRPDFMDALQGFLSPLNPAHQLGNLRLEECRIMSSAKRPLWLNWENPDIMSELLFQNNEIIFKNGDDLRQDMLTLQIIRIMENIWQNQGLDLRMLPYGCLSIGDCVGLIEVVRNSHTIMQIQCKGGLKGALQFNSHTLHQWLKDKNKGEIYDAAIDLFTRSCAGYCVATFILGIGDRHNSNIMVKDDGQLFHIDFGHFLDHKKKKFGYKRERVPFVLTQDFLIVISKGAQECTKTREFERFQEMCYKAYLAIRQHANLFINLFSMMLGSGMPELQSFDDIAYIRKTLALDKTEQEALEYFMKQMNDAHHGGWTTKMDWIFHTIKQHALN
T1 sequence (P27986 whole entry partner): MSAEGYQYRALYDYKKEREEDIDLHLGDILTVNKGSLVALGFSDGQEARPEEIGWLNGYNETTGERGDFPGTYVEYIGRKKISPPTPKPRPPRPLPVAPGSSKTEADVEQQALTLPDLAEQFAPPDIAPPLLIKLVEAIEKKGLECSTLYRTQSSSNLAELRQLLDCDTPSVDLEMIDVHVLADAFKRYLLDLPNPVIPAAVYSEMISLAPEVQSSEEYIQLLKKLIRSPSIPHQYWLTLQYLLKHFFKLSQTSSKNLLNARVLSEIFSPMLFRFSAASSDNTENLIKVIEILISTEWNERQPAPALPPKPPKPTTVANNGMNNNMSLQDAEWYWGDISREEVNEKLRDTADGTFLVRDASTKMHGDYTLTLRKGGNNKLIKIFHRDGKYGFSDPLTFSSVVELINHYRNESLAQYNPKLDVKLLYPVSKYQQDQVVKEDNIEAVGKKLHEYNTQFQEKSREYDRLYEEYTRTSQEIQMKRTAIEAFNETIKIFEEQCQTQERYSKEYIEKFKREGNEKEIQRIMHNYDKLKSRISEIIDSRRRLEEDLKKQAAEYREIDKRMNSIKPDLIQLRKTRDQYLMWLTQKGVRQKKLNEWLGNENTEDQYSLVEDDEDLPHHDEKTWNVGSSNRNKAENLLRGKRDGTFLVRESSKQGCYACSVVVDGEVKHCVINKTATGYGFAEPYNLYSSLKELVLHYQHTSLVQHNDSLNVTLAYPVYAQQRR
Method: In a PI3Kα enzyme assay, a product (manufactured by Carna Biosciences, Inc.) obtained by biotinylating a human PI3Kα protein produced by using a baculovirus expression system was used. In addition, in the detection of enzyme activity, ADP-GLO KINASE ASSAY (trade name, manufactured by PROMEGA Corporation) was used.
10 μL of a reaction liquid (4.5 nmol/L PI3Kα, 40 mmol/L Tris-HCl, 20 mmol/L MgCl2, 0.1% BSA, pH 7.5) including the human PI3Kα protein and a test compound having a predetermined concentration was allowed to stand at room temperature for 15 minutes. Then, 5 μL of a mixture liquid of L-α-phosphatidylinositol 4,5-diphosphate (PIP2) (manufactured by Sigma-Aldrich Co. LLC.) and ATP (manufactured by Sigma-Aldrich Co. LLC.), which are substrates, was added thereto such that final concentrations thereof became 50 μmol/L and 100 μmol/L, respectively, and an enzyme reaction was performed by allowing to stand at 25° C. for 60 minutes.
After the reaction, the enzyme reaction was stopped by adding 15 μL of an ADP-GLO REAGENT (trade name, manufactured by PROMEGA Corporation) thereto and allowing to stand at room temperature for 60 minutes. Then, 30 μL of a KINASE DETECTION REAGENT (trade name, manufactured by PROMEGA Corporation) was added thereto, followed by allowing to stand at room temperature for 40 minutes, and ADP produced by the enzyme reaction was quantified by emission intensity.
ENVISION (trade name, manufactured by Perkin Elmer Inc.) was used for the measurement of the emission intensity.
(§1) The inhibitory activities of the compounds were evaluated using IC50 (50% inhibitory concentration). The IC50 was calculated using XLFIT (trade name, manufactured by ID Business Solutions).

[2] = molecular target: T2, GST fusion human ERK2 protein (Homo sapiens, UniProt P28482); assay: ERK2 enzyme assay (2); type: biochemical; details: read-out: ERK2 enzyme inhibitory activity (2)
T2 construct: purchased Carna Biosciences, Inc; host or cells: E. coli expression system
T2 sequence (P28482 whole entry, the tested form may be a part): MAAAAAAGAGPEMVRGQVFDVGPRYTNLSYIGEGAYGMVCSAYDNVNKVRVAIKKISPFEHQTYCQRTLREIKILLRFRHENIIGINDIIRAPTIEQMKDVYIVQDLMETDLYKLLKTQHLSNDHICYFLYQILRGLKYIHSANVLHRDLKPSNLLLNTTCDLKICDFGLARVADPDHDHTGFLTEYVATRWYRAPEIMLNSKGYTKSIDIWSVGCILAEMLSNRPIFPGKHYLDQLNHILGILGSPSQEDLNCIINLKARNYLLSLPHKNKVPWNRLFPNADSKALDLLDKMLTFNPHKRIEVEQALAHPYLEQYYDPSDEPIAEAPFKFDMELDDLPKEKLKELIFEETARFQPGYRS
Method: In an ERK2 enzyme assay, GLUTATHIONE S-TRANSFERASE (GST) FUSION HUMAN ERK2 PROTEIN (manufactured by Carna Biosciences, Inc.), which was produced by using an E. coli expression system, was used.
12 μL of a reaction liquid (1.25 nmol/L ERK2, 100 mmol/L Hepes, 10 mmol/L MgCl2, 1.5 mmol/L DTT, 0.003% Brij35, pH 7.5) including ERK2 protein and a test compound having a predetermined concentration was allowed to stand at room temperature for 15 minutes. Then, 3 μL of a mixture liquid of FL-PEPTIDE8 (5-FAM-IPTSPITTTYFFFKKK-COOH) (manufactured by Caliper Life Sciences), which is substrate peptide, and ATP (manufactured by Sigma-Aldrich Co. LLC.) was added thereto such that the final concentrations thereof became 4.25 μmol/L and 1 mmol/L, respectively, and an enzyme reaction was performed by allowing to stand at 25° C. for 120 minutes.
After the reaction, the enzyme reaction was stopped by adding 30 μL of a reaction stopper liquid (100 mmol/L HEPES, 11.2 mmol/L EDTA, 5.6% Brij35, pH 7.5) including a 0.5% COATING REAGENT 8 (trade name, manufactured by Perkin Elmer Inc.) thereto. Then, phosphorylated peptide and non-phosphorylated peptide were separated using LABCHIP EZ READER (trade name, manufactured by Caliper Life Sciences), and the porportion of the phosphorylated peptide was quantified.
as §1

Structure (SMILES) | IC50 [1] [nM] | IC50 ([2]; ERK2 enzyme assay (2)) [nM] | IC50 [2] [nM]
COCCOC1CN(CCCn2cc(-c3cnc4ccc(Nc5cc(C(C)C)cnn5)nc4c3)cn2)C1 [Example 0718, N-(5-isopropylpyridazin-3-yl)-7-(1-(3-(3-(2-methoxyethoxy)azetidin-1-yl)propyl)-1H-pyrazol-4-yl)-1,5-naphthyridine-2-amine] | < 1000 | < 1000 | –
CC1CN(CCCn2cc(-c3cnc4ccc(Nc5cc(C(C)C)cnn5)nc4c3)cn2)C(C)CO1 (centres unmarked) [Example 0674] | < 1000 | < 1000 | –
CC(C)c1cnnc(Nc2ccc3ncc(C4=CCN(C(=O)OC(C)(C)C)CC4)cc3n2)c1 [Example 0880, tert-butyl 4-(6-((5-isopropylpyridazin-3-yl)amino)-1,5-naphthyridin-3-yl)-5,6-dihydropyridine-1(2H)-carboxylate] | < 1000 | < 1000 | –
CCN(CC)c1nn(C)cc1-c1cnc2ccc(Nc3cc(C(C)C)cnn3)nc2c1 [Example 0944] | < 1000 | – | < 1000
CC(C)c1cnnc(Nc2ccc3ncc(NC4CCCCC4)cc3n2)c1 [Example 0877] | < 1000 | 1000 to 10000 | –
Cn1cc(-c2cnc3ccc(Nc4cc(C(C)(C)CO)cnn4)nc3c2)cn1 [Example 0560, 2-methyl-2-(6-((7-(1-methyl-1H-pyrazol-4-yl)-1,5-naphthyridin-2-yl)amino)pyridazin-4-yl)propan-1-ol] | < 1000 | < 1000 | –
CCC1CN(CCCn2cc(-c3cnc4ccc(Nc5cc(C(C)C)cnn5)nc4c3)cn2)CCO1 (centres unmarked) [Example 0684] | < 1000 | < 1000 | –
CCC(CC)c1cnnc(Nc2ccc3ncc(-c4cnn(CCOC5CNC5)c4)cc3n2)c1 [Example 0816] | < 1000 | < 1000 | –
COCC(C)c1cnnc(Nc2ccc3ncc(-c4cn(C)nc4C)cc3n2)c1 (centres unmarked) [Example 0786, 7-(1,3-dimethyl-1H-pyrazol-4-yl)-N-(5-(1-methoxypropan-2-yl)pyridazin-3-yl)-1,5-naphthyridine-2-amine] | < 1000 | < 1000 | –
CC(C)CC(=O)N1CCC(Cn2cc(-c3cnc4ccc(Nc5cc(C(C)C)cnn5)nc4c3)cn2)CC1 [Example 0535] | < 1000 | < 1000 | –
CC(C)c1cnnc(Nc2ccc3ncc(N4CC(OCC5CC5)C4)cc3n2)c1 [Example 0869] | 1000 to 10000 | < 1000 | –
Cn1cc(-c2cnc3ccc(Nc4cc(C5(C)CC5)cnn4)nc3c2)cn1 [Example 0633] | < 1000 | < 1000 | –
CNc1cc(-c2cnc3ccc(Nc4cc(C(C)C)cnn4)nc3c2)ccn1 [Example 0423, N-(5-isopropylpyridazin-3-yl)-7-(2-(methylamino)pyridin-4-yl)-1,5-naphthyridine-2-amine hydrochloride] | < 1000 | < 1000 | –
CC(C)c1cnnc(Nc2ccc3ncc(-c4cnn(CCCN5CCN(c6cccnc6)CC5)c4)cc3n2)c1 [Example 0446] | < 1000 | < 1000 | –
CC(C)c1cnnc(Nc2ccc3ncc(-c4cnn(Cc5ccc([N+](=O)[O-])cc5)c4)cc3n2)c1 [Example 0716] | < 1000 | < 1000 | –
CC(C)c1cnnc(Nc2ccc3ncc(-c4cnn(CCN5CC6(COC6)C5)c4)cc3n2)c1 [Example 0619, 7-(1-(2-(2-Oxa-6-azaspiro[3.3]heptan-6-yl)ethyl)-1H-pyrazol-4-yl)-N-(5-isopropylpyridazin-3-yl)-1,5-naphthyridine-2-amine] | < 1000 | < 1000 | –
CC(=O)N1CC(OCCn2cc(-c3cnc4ccc(Nc5cc(C(C)C)cnn5)nc4c3)cn2)C1 [Example 0754, 1-(3-(2-(4-(6-((5-isopropylpyridazin-3-yl)amino)-1,5-naphthyridin-3-yl)-1H-pyrazol-1-yl)ethoxy)azetidin-1-yl)ethanone] | < 1000 | < 1000 | –
CC(=O)Nc1ccc(Cn2cc(-c3cnc4ccc(Nc5cc(C(C)C)cnn5)nc4c3)cn2)cc1 [Example 0470, N-(4-((4-(6-((5-isopropylpyridazin-3-yl)amino)-1,5-naphthyridin-3-yl)-1H-pyrazol-1-yl)methyl)phenyl)acetamide] | < 1000 | < 1000 | –
Cc1nn(C)cc1-c1cnc2ccc(Nc3cc(C4CC4)cnn3)nc2c1 [Example 0565] | < 1000 | < 1000 | –

Structure (SMILES) | IC50 [1] [nM] | IC50 ([2]; ERK2 enzyme assay (2)) [nM] | IC50 [2] [nM]
Cc1nn(C)nc1-c1cnc2ccc(Nc3cc(C(C)C)cnn3)nc2c1 [Example 0720, 7-(2,5-Dimethyl-2H-1,2,3-triazol-4-yl)-N-(5-isopropylpyridazin-3-yl)-1,5-naphthyridine-2-amine] | < 1000 | < 1000 | –
CC(C)c1cnnc(Nc2ccc3ncc(-c4cc(N)ncn4)cc3n2)c1 [Example 0765] | < 1000 | < 1000 | –
CC(C)c1cnnc(Nc2ccc3ncc(-c4cncnc4)cc3n2)c1 [Example 0604] | 10000 to 50000 | < 1000 | –
COC(CN1CCOCC1)Cn1cc(-c2cnc3ccc(Nc4cc(C(C)C)cnn4)nc3c2)cn1 (centres unmarked) [Example 0730] | < 1000 | < 1000 | –
COc1ncccc1-c1cnc2ccc(Nc3cc(C(C)C)cnn3)nc2c1 [Example 0591] | 1000 to 10000 | < 1000 | –
CC(C)c1cnnc(Nc2ccc3ncc(-c4cnn(CCCN(C)CC(=O)O)c4)cc3n2)c1 [Example 0667, 2-((3-(4-(6-((5-isopropylpyridazin-3-yl)amino)-1,5-naphthyridin-3-yl)-1H-pyrazol-1-yl)propyl) (methyl)amino)acetic acid] | < 1000 | < 1000 | –
CC(C)c1cnnc(Nc2ccc3ncc(-c4cnn(CC5CCN(C(=O)N6CCOCC6)CC5)c4)cc3n2)c1 [Example 0532] | < 1000 | < 1000 | –
CN(C)S(=O)(=O)Cc1cnnc(Nc2ccc3ncc(-c4cnn(C)c4)cc3n2)c1 [Example 0924] | < 1000 | – | < 1000
CC(C)c1cnnc(Nc2ccc3ncc(N4CC(OCC(F)F)C4)cc3n2)c1 [Example 0868] | 1000 to 10000 | < 1000 | –
c1cnnc(Nc2ccc3ncc(-c4cnn(CCCN5CCOCC5)c4)cc3n2)c1 [Example 0601, 7-(1-(3-Morpholinopropyl)-1H-pyrazol-4-yl)-N-(pyridazin-3-yl)-1,5-naphthyridine-2-amine] | 1000 to 10000 | < 1000 | –
CC(C)c1cnnc(Nc2ccc3ncc(-c4cn(C)nc4NC4COC4)cc3n2)c1 [Example 0831] | < 1000 | < 1000 | –
CC(C)c1cnnc(Nc2ccc3ncc(-c4cnn(CCN5CCC5)c4)cc3n2)c1 [Example 0611] | < 1000 | < 1000 | –
CC(C)c1cnnc(Nc2ccc3ncc(-c4cn(C)nc4COc4cccnc4)cc3n2)c1 [Example 0799, N-(5-isopropylpyridazin-3-yl)-7-(1-methyl-3-((pyridin-3-yloxy)methyl)-1H-pyrazol-4-yl)-1,5-naphthyridine-2-amine] | < 1000 | < 1000 | –
Cc1ncc(-c2nn(C)cc2-c2cnc3ccc(Nc4cc(C(C)C)cnn4)nc3c2)s1 [Example 0587] | < 1000 | < 1000 | –
CC(C)c1cnnc(Nc2ccc3ncc(-n4cnc(CCN)c4)cc3n2)c1 [Example 0506, Hydrochloric acid salt of 7-(4-(2-aminoethyl)-1H-imidazol-1-yl)-N-(5-isopropylpyridazin-3-yl)-1,5-naphthyridine-2-amine] | 1000 to 10000 | < 1000 | –
CC(C)c1cnnc(Nc2ccc3ncc(-c4cnn(CCOC5CN(Cc6ccccc6)C5)c4)cc3n2)c1 [Example 0743] | < 1000 | < 1000 | –
CC(C)c1cnnc(Nc2ccc3ncc(-c4cn(C)nc4N(C)c4cccnc4)cc3n2)c1 [Example 0802] | < 1000 | < 1000 | –
CC(C)c1cnnc(Nc2ccc3ncc(-c4cn(C)nc4Nc4ccncc4)cc3n2)c1 [Example 0798] | < 1000 | < 1000 | –
